Values of other authors as cited in paper PMC9851200, “Multiparameter phenotypic screening for endogenous TFEB and TFE3 translocation identifies novel chemical series modulating lysosome function” (Autophagy, 2022).

Columns and labels:
Parameters in all cases: method as in original PKIS2 published data
[1] = target: T1, kinases (KINOMEscan panel) (Homo sapiens, UniProt Q6XUX3); conditions: DSTYK; Published KINOMEscan; ref original PKIS2 published data; cited from earlier work
T1 sequence (Q6XUX3 1-929): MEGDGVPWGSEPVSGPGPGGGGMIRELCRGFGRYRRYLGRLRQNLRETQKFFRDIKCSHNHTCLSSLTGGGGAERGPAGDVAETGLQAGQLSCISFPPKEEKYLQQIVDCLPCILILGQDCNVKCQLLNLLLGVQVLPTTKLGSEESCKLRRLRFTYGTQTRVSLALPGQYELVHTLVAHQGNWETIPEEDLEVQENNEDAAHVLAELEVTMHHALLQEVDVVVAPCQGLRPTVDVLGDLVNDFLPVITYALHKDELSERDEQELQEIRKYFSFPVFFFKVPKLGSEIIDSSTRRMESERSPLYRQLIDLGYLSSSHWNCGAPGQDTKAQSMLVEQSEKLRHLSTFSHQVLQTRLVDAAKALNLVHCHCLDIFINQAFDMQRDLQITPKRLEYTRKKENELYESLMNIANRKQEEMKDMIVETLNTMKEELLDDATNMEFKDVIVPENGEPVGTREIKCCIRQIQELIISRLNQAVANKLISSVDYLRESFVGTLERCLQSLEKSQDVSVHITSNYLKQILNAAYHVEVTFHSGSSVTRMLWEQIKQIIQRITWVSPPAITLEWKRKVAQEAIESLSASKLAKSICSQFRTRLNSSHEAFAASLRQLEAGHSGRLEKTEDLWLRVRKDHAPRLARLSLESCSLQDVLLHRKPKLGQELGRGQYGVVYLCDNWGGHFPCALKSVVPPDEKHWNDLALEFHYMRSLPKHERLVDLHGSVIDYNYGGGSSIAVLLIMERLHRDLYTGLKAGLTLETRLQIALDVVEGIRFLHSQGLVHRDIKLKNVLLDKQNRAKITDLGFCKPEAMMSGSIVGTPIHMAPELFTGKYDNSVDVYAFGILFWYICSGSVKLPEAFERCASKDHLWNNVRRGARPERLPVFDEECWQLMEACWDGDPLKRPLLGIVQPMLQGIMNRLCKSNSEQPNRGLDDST

[2] = target: kinases (KINOMEscan panel) (Homo sapiens, UniProt O43293); conditions: DAPK3; Published KINOMEscan; ref original PKIS2 published data; cited from earlier work
[3] = target: kinases (KINOMEscan panel) (Homo sapiens, UniProt Q02779); conditions: kinase MAP3K10; Published KINOMEscan; ref original PKIS2 published data; cited from earlier work
[4] = target: kinases (KINOMEscan panel) (Homo sapiens, UniProt Q7KZI7); conditions: MARK2; Published KINOMEscan; ref original PKIS2 published data; cited from earlier work
[5] = target: kinases (KINOMEscan panel) (Homo sapiens, UniProt O43353); conditions: RIPK2; Published KINOMEscan; ref original PKIS2 published data; cited from earlier work
[6] = target: kinases (KINOMEscan panel) (Homo sapiens, UniProt Q96RR4); conditions: CAMKK2; Published KINOMEscan; ref original PKIS2 published data; cited from earlier work
[7] = target: kinases (KINOMEscan panel) (Homo sapiens, UniProt P08631); conditions: kinase HCK; Published KINOMEscan; ref original PKIS2 published data; cited from earlier work
[8] = target: T2, kinases (KINOMEscan panel) (Homo sapiens, UniProt Q96L34); conditions: kinase MARK4; Published KINOMEscan; ref original PKIS2 published data; cited from earlier work
T2 sequence (Q96L34 1-752): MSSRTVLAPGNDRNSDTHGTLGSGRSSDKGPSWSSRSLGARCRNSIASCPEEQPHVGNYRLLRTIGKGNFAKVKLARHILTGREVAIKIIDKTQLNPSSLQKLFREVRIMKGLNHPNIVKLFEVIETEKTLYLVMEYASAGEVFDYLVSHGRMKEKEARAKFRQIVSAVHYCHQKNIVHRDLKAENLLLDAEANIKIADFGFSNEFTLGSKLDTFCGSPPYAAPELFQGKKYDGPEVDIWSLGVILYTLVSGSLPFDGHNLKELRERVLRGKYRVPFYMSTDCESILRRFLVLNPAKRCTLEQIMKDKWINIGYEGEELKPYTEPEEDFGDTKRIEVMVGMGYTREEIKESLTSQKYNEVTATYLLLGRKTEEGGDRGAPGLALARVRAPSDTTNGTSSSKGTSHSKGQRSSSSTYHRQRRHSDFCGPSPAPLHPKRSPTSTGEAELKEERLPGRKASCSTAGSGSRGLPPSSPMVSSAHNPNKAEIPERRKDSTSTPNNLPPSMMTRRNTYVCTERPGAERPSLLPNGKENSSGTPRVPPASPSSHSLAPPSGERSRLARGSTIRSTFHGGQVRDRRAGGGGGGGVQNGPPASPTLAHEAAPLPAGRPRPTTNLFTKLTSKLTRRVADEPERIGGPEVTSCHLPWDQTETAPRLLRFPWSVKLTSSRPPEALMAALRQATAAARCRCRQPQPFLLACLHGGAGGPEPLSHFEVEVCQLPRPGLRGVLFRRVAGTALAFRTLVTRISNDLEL

Chain of kinases (KINOMEscan panel) (Homo sapiens, UniProt Q96RR4) (Q96RR4 whole entry): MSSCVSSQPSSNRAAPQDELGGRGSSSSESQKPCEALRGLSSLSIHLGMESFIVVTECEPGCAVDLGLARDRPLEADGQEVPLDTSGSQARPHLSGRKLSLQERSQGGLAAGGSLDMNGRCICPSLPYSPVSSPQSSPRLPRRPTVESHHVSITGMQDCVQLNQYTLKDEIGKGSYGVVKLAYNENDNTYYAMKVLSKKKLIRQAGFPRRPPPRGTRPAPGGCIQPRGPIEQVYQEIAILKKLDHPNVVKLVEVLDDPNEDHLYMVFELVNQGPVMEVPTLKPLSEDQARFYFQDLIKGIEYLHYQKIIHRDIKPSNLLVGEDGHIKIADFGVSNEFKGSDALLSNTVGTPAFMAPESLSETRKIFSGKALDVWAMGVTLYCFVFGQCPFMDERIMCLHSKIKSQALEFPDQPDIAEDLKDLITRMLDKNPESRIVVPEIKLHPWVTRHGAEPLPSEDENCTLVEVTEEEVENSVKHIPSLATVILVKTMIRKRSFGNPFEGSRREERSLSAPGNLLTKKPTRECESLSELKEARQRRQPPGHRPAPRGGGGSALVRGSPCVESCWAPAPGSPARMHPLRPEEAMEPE
Chain of kinases (KINOMEscan panel) (Homo sapiens, UniProt P08631) (P08631 whole entry): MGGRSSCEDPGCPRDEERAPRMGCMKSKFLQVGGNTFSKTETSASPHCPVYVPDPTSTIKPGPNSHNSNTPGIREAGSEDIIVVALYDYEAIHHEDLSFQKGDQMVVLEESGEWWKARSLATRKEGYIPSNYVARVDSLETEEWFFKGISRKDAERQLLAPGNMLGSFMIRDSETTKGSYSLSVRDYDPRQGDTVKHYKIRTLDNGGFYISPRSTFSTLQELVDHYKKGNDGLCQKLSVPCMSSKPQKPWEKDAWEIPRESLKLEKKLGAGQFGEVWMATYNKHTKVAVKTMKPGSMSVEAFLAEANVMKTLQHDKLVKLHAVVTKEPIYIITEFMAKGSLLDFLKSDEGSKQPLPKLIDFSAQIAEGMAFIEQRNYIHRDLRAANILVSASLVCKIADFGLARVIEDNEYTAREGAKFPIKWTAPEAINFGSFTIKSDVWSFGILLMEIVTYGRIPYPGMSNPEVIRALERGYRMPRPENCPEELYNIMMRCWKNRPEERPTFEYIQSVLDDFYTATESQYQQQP
Chain of kinases (KINOMEscan panel) (Homo sapiens, UniProt Q02779) (Q02779 whole entry): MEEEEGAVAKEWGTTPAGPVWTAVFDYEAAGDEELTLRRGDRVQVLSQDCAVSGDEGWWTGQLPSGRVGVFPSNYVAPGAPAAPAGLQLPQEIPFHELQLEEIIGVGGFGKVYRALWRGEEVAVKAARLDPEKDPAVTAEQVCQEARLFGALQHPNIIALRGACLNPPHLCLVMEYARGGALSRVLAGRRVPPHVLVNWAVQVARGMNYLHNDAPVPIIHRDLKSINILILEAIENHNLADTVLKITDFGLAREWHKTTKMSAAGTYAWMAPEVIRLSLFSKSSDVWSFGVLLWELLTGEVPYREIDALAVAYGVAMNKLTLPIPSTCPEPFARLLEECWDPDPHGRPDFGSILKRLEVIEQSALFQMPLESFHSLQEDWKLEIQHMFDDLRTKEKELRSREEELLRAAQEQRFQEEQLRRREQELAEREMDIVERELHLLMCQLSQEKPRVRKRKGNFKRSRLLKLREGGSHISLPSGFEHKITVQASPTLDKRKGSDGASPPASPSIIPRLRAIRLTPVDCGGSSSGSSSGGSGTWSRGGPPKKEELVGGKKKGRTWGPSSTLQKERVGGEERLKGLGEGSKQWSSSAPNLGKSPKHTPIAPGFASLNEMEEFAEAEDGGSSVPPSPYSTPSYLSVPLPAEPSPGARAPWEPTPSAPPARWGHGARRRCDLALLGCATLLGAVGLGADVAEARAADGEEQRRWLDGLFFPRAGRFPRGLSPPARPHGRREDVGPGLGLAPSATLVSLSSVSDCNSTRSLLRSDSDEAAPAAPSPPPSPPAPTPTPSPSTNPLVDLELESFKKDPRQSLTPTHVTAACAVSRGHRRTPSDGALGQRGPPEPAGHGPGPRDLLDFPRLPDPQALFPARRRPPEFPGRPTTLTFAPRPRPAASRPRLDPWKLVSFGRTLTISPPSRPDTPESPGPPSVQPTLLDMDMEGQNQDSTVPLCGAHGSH
Chain of kinases (KINOMEscan panel) (Homo sapiens, UniProt O43293) (O43293 whole entry): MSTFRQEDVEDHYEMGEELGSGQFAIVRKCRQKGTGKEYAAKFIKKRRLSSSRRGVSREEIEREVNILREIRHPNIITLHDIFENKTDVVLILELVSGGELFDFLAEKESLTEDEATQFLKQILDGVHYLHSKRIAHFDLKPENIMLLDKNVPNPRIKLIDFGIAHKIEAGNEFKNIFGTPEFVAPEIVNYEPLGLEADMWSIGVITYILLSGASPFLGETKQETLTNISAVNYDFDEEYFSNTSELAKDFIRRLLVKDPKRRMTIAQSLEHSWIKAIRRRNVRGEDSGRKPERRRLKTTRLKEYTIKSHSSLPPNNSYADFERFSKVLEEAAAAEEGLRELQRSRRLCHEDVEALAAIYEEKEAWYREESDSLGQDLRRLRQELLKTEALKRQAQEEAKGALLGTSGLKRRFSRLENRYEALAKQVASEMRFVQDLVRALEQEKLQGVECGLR
Chain of kinases (KINOMEscan panel) (Homo sapiens, UniProt Q7KZI7) (Q7KZI7 whole entry): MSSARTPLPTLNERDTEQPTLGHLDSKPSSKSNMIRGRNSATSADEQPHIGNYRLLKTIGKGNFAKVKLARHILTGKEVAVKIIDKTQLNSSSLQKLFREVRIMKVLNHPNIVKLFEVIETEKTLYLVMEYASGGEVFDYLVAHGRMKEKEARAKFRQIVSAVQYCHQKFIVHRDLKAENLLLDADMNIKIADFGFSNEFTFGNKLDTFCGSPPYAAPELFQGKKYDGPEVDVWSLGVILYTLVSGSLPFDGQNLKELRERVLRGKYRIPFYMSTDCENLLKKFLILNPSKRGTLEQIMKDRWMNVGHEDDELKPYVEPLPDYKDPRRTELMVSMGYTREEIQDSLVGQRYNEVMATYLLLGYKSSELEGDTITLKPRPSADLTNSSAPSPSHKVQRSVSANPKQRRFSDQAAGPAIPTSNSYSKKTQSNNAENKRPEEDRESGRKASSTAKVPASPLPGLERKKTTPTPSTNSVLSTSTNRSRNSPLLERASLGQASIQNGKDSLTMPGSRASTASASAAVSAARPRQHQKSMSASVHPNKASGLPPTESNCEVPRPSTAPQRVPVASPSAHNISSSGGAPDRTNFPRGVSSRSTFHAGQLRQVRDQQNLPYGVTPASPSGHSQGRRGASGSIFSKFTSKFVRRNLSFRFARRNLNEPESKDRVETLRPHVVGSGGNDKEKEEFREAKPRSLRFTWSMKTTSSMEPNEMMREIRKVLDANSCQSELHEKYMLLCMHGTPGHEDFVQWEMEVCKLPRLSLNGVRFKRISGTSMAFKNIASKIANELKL
Chain of kinases (KINOMEscan panel) (Homo sapiens, UniProt O43353) (O43353 whole entry): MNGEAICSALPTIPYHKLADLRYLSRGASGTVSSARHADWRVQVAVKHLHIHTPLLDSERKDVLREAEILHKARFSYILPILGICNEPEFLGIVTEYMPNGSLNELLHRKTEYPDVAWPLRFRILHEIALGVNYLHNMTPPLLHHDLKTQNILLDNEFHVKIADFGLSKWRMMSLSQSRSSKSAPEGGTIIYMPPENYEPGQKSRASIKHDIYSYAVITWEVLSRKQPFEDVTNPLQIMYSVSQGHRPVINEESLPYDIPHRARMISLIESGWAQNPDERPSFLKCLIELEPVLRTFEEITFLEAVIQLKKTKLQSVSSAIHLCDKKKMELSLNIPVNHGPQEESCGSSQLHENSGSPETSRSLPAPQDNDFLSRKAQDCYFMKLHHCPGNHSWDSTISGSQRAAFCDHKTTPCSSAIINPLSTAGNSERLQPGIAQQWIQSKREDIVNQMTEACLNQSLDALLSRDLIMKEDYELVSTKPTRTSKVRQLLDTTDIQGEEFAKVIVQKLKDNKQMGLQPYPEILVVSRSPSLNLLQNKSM

Cc1cccc(-c2nc(Nc3ccncc3)c3ccccc3n2)n1 [NK215]
KINOMEscan DSTYK [1]: 0
KINOMEscan DAPK3 [2]: 17
KINOMEscan MAP3K10 [3]: 7
KINOMEscan MARK2 [4]: 0
KINOMEscan RIPK2 [5]: 71
KINOMEscan CAMKK2 [6]: 7
KINOMEscan HCK [7]: 11
KINOMEscan MARK4 [8]: 25
